The values that follow come from patent publication US20220126077A1, “Treatment for Dry Eyes” (priority 2020, published 2022).

Each structure is given as a SMILES string.

The test system of this experiment is lacrimal glands. Kind of experiment: Experimentation with balm ingredients applied to the skin adjacent the eyes: tear production. The note with it: vapor released over time. Format: in vivo. From the text:
The formulation particularly preferred for the balm includes caffeine, in a medically useful amount, which, when applied to the skin adjacent the eyes, promotes blood circulation thereto. Additionally included is menthol in a medically useful amount, which is included to release a vapor over a period of time subsequent to application to the skin.
By adjacent to the eye is meant the skin area on the face which is below the lower eye lid, and between the end of the nose of the user and the outside end of the eye of the user which is closest to the ear on the same side as the eye being treated.
The plurality of active ingredients have been found, in experimentation when employed together, to have a beneficial synergistic effect which is well beyond the effect of the individual ingredients when employed in a balm by themselves. Currently, an active ingredient portion of the total volume of the balm mixture, includes a combination of active ingredients blended and combined to an active ingredient portion of the total balm mixture. This active ingredient portion of the total mixture ranges from 20 to 60 percent of the total volume of the balm mixture. […]

On to `CC1CCC(C(C)C)C(O)C1` (stereo not shown) [menthol, Menthol], for which the “production of tears by the lacrimal glands” value is reported as “stimulate the lacrimal glands to produce tears”.
